A value given as a limit tells only on which side of the number the result lay.

Experiment [1] concerns the target T1, system Xc^− (Homo sapiens, UniProt Q9UPY5).
T1 sequence (Q9UPY5 1-501): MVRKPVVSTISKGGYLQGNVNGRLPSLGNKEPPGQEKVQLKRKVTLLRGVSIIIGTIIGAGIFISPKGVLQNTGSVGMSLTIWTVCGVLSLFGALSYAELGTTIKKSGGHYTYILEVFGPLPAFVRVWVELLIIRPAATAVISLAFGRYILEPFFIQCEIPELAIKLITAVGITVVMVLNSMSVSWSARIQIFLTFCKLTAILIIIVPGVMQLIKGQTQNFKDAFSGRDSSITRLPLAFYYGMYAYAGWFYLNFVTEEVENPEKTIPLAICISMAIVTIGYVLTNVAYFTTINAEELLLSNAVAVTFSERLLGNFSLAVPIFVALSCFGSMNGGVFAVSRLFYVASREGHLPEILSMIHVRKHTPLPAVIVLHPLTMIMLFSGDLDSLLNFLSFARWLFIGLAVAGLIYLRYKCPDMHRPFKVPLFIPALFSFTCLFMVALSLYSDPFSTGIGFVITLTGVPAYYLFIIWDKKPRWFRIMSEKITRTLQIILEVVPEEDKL
T1 sequence (P08195 1-529 partner): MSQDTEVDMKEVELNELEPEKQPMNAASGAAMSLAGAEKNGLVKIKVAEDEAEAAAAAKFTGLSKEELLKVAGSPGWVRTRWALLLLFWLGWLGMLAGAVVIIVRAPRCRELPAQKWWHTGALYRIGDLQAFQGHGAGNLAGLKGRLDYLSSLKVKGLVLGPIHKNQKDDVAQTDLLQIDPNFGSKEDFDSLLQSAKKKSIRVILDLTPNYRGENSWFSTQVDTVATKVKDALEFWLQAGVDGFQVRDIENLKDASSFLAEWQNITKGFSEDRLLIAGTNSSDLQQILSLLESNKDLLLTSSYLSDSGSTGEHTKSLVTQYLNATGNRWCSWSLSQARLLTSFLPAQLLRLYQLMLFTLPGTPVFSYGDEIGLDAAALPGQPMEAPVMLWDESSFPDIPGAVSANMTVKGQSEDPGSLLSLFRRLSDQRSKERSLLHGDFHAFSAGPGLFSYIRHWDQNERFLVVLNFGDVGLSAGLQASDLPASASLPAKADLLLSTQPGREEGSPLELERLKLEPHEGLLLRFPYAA
The experiment is described as follows: Cystine-induced glutamate release assay. Format: cell-based. The arrangement: endogenous in cells; host or cells: H4 cells. The settings on record: H4 cells, sodium-free HEPES buffer, 50 μM L-Cystine, 2 hours, Amplex Red glutamate readout; for IC50: read-out: pIC50 Cystine-induced glutamate release assay (converted). Summed up: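 H4 cells in sodium-free HEPES buffer (pH 7.4), 2 days after plating; glutamate release induced with 50 μM L-cystine plus compound (1% DMSO), 2 h at 37 °C. Supernatant glutamate measured by Amplex Red fluorescence; IC50/pIC50 derived between 1% DMSO and 50 μM erastin controls.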

Experiment [2] concerns the target T1, system Xc^−. The experiment can be described thus: [^14C]L-Cystine uptake assay. The arrangement: endogenous in cells; host or cells: H4 cells. The settings on record: H4 cells, sodium-free HEPES buffer, 0.5 μM L-[14C]Cystine and 4.5 μM L-Cystine, 1 hour at 37° C.; for IC50: read-out: pIC50 [^14C] L-Cystine uptake assay (converted). Format: cell-based. Put shortly: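 H4 cells at 5×10^4 cells/well in sodium-free HEPES buffer were preincubated 15 min with compounds (1% DMSO). Uptake of 0.5 μM [14C]L-cystine plus 4.5 μM unlabelled L-cystine ran 1 hour at 37° C on scintillating plates. IC50 was set between 1% DMSO and 50 μM Erastin controls and expressed as pIC50.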

With `Cc1cc2c(cn1)-c1c(Cl)cccc1CC(=O)N2CC(=O)Nc1ccc(C(F)(F)F)cc1` [#32, 2-(11-chloro-3-methyl-6-oxo-7H-pyrido[4,3-d][3]benzazepin-5-yl)-N-[4-(trifluoro-methyl)phenyl] acetamide], the IC50 in experiment [1] and in experiment [2] was 100 to 501 nM in each case.
In the case of `Cc1cc2c(c(Cl)n1)-c1ccnnc1C(C)C(=O)N2CC(=O)Nc1ccc(C(F)(F)F)cc1` (stereo not drawn) [#173, 2-(3-chloro-5,10-dimethyl-9-oxo-4,8,12,13-tetrazatricyclo[9.4.0.0^2,7]pentadeca-1(11),2(7),3,5,12,14-hexaen-8-yl)-N-[4-(trifluoromethyl)phenyl]acetamide], the figures for the IC50 in experiment [1] and in experiment [2] were 15.8 to 39.8 nM and under 15.8 nM, respectively.
The corresponding values for `O=C(CN1C(=O)Cc2ncccc2-c2c1cc(N1CC3(CC3)C1)nc2F)Nc1ccc(C(F)F)cc1` [#294, 2-[5-(5-azaspiro[2.3]hexan-5-yl)-3-fluoro-9-oxo-4,8,12-triazatricyclo[9.4.0.0^2,7]pentadeca-1(15),2,4,6,11,13-hexaen-8-yl]-N-[4-(difluoromethyl)phenyl]acetamide] are 15.8 to 39.8 nM and 39.8 to 100 nM.
For `Cc1cc2c(n(C)c1=O)-c1ccc(Cl)cc1C(C)C(=O)N2CC(=O)Nc1ccc(Cl)c(F)c1` (stereo not drawn) [#181, N-(4-chloro-3-fluoro-phenyl)-2-(9-chloro-1,3,7-trimethyl-2,6-dioxo-7H-pyrido[3,2-d][3]benzazepin-5-yl)acetamide] the same measures were 15.8 to 39.8 nM and under 15.8 nM.
For `Cc1cc2c(c(F)n1)-c1cccnc1[C@@H](C)C(=O)N2CC(=O)Nc1ccc(C2(F)CC2)c(F)c1` [#248, 2-[(10R)-3-fluoro-5,10-dimethyl-9-oxo-4,8,12-triazatricyclo[9.4.0.0^2,7]pentadeca-1(11),2(7),3,5,12,14-hexaen-8-yl]-N-[3-fluoro-4-(1-fluorocyclopropyl)phenyl]acetamide] the same measures were under 15.8 nM and under 15.8 nM.
Turning to `Cc1cc2c(c(Cl)n1)-c1cncc(F)c1CC(=O)N2CC(=O)Nc1ccc(C(F)(F)F)cc1` [#160, 2-(3-chloro-12-fluoro-5-methyl-9-oxo-4,8,14-triazatricyclo[9.4.0.0^2,7]pentadeca-1(11),2(7),3,5,12,14-hexaen-8-yl)-N-[4-(trifluoromethyl)phenyl]acetamide], the IC50 is 100 to 501 nM in experiment [1] and 15.8 to 39.8 nM in experiment [2].
The corresponding values for `Cc1ccc2c(n1)CC(=O)N(CC(=O)Nc1ccc(Cl)c(F)c1)c1cc(C)c(C)cc1-2` [#4, N-(4-chloro-3-fluoro-phenyl)-2-(3,9,10-trimethyl-6-oxo-5-H-pyrido[2,3-d][1]benzazepin-7-yl)acetamide] are 100 to 501 nM and 100 to 501 nM.
The corresponding values for `Cc1cc2c(c(F)n1)-c1cccnc1[C@@H](C)C(=O)N2CC(=O)Nc1ccc(Cl)cc1F` [#242, N-(4-chloro-2-fluoro-phenyl)-2-[(10R)-3-fluoro-5,10-dimethyl-9-oxo-4,8,12-triazatricyclo[9.4.0.0^2,7]pentadeca-1(15),2,4,6,11,13-hexaen-8-yl]acetamide] are 15.8 to 39.8 nM and 39.8 to 100 nM.
For the compound `Cc1cc2c(cc1C)N(CC(=O)Nc1ccc(C(F)(F)F)cc1)C(=O)Cc1ncccc1-2` [#23, 2-(9,10-dimethyl-6-oxo-5H-pyrido[2,3-d][1]benzazepin-7-yl)-N-[4-(trifluoromethyl)phenyl]acetamide], the values for the IC50 in experiment [1] and in experiment [2] were 39.8 to 100 nM and 15.8 to 39.8 nM, respectively.
The corresponding values for `Cc1cc2c(c(C#N)n1)-c1cccnc1C(C)C(=O)N2CC(=O)Nc1ccc(C(F)(F)F)cc1` (stereo not drawn) [#154, 2-(3-cyano-5,10-dimethyl-9-oxo-4,8,12-triazatricyclo[9.4.0.0^2,7]pentadeca-1(11),2(7),3,5,12,14-hexaen-8-yl)-N-[4-(trifluoromethyl)phenyl]acetamide] are 15.8 to 39.8 nM and under 15.8 nM.
The corresponding values for `Cc1cc2c(cn1)-c1cccc(Cl)c1CC(=O)N2CC(=O)Nc1ccc(C(F)(F)F)cc1` [#31, 2-(8-chloro-3-meth-yl-6-oxo-7H-pyrido [4,3-d][3]benzaze-pin-5-yl)-N-[4-(trifluoromethyl)-phenyl]acetamide] are 100 to 501 nM and 15.8 to 39.8 nM.
For `Cc1cc2c(c(F)n1)-c1cccnc1[C@@H](C)C(=O)N2CC(=O)Nc1ccc2c(cnn2C)c1` [#141, 2-[(10R)-3-fluoro-5,10-dimethyl-9-oxo-4,8,12-triazatricyclo[9.4.0.0^2,7]pentadeca-1(11),2(7),3,5,12,14-hexaen-8-yl]-N-(1-methylindazol-5-yl)acetamide] the same measures were 15.8 to 39.8 nM and 15.8 to 39.8 nM.
For the compound `Cc1cc2c(c(C(F)F)n1)-c1ccccc1CC(=O)N2CC(=O)Nc1ccc(C(F)(F)F)cc1` (single isomer, unassigned) [#194, Atropisomer aR or aS of 2-[1-(difluoromethyl)-3-methyl-6-oxo-7H-pyrido[4,3-d][3]benzazepin-5-yl]-N-[4-(trifluoromethyl)phenyl]acetamide], the “pIC50 Cystine-induced glutamate release assay” value in experiment [1] is given as “C (about 7.40 < pIC50 ≤ about 7.80)”. In addition, in experiment [2], the “pIC50 [^14C] L-Cystine uptake assay” value was “D (plC50 > about 7.80)”.
The corresponding values for `COc1cc2c(c(F)n1)-c1cccnc1C(C)C(=O)N2CC(=O)Nc1ccc(Cl)c(F)c1` (single isomer, unassigned) [#215, Enantiomer (10S) or (10R) of N-(4-chloro-3-fluoro-phenyl)-2-[3-fluoro-5-methoxy-10-methyl-9-oxo-4,8,12-triazatricyclo[9.4.0.0^2,7]pentadeca-1(15),2(7),3,5,11,13-hexaen-8-yl]acetamide] are “C (about 7.40 < pIC50 ≤ about 7.80)” and “C (about 7.40 < pIC50 ≤ about 7.80)”.
As for `Cc1cc2c(cn1)-c1cc(F)ccc1CC(=O)N2CC(=O)Nc1ccc(C(F)(F)F)cc1` [#33, 2-(10-fluoro-3-methyl-6-oxo-7H-pyrido[4,3-d][3]benzazepin-5-yl)-N-[4-(trifluoro-methyl)phenyl] acetamide], the IC50 was 39.8 to 100 nM in experiment [1] and 15.8 to 39.8 nM in experiment [2].
Regarding `COc1cc2c(c(F)n1)-c1cccnc1C(C)C(=O)N2CC(=O)Nc1ccc(C(F)F)cc1` (single isomer, unassigned) [#214, Enantiomer (10S) or (10R) of N-[4-(difluoromethyl)phenyl]-2-[3-fluoro-5-methoxy-10-methyl-9-oxo-4,8,12-triazatricyclo[9.4.0.0^2,7]pentadeca-1(15),2(7),3,5,11,13-hexaen-8-yl]acetamide], the “pIC50 Cystine-induced glutamate release assay” value in experiment [1] is on record as “D (plC50 > about 7.80)”. The “pIC50 [^14C] L-Cystine uptake assay” value in experiment [2] is “C (about 7.40 < pIC50 ≤ about 7.80)”.
With `Cc1cc2c(c(Cl)n1)-c1cccnc1C(C)C(=O)N2CC(=O)Nc1ccc(Br)c(F)c1` (single isomer, unassigned) [#224, Enantiomer (10S) or (10R) of N-(4-bromo-3-fluoro-phenyl)-2-[3-chloro-5,10-dimethyl-9-oxo-4,8,12-triazatricyclo[9.4.0.0^2,7]pentadeca-1(15),2,4,6,11,13-hexaen-8-yl]acetamide], the IC50 in experiment [1] is 15.8 to 39.8 nM; in experiment [2] it was under 15.8 nM.
The corresponding values for `COc1nc(C)cc2c1-c1cccnc1C(O)C(=O)N2CC(=O)Nc1ccc(C(F)(F)F)cc1` (stereo not drawn) [#96, 2-(10-hydroxy-3-methoxy-5-methyl-9-oxo-4,8,12-triazatricyclo[9.4.0.0^2,7]pentadeca-1(11),2,4,6,12,14-hexaen-8-yl)-N-[4-(trifluoromethyl)phenyl]acetamide] are 15.8 to 39.8 nM and 15.8 to 39.8 nM.
